Earlier results as cited in paper PMC8513424 (Laryngoscope Investigative Otolaryngology, 2021).

What was measured:
[1] = test system: isogenic VS‐ and meningioma‐related cell lines with or without NF2 expression; settings: among 19 small molecules; cited from earlier work
[2] = test system: meningiomas; settings: cited from earlier work

Compound	Activity across schwannoma and meningioma cell models [1]	Response of meningiomas [2]
COc1ccc(-c2nc(N3CCOCC3)c3sc(CN(C)c4ncc(C(=O)NO)cn4)cc3n2)cn1 [CUDC‐907]	greatest activity	
Cc1[nH]c2ccccc2c1CCNCc1ccc(/C=C/C(=O)NO)cc1 [panobinostat]	greatest activity	
bevacizumab		do not respond
